The values that follow are results of earlier work, collected in US20230190604A1, “DERMATOLOGIC/PERSONAL CARE CONCENTRATES” (Vantage Specialty Ingredients, Inc., priority 2021, published 2023).

The conditions of data set [1]: ethanol as solvent, "normal temperatures".
For data set [2] the following is noted: water as solvent.

With `O=C(O)CCCCCCCC(=O)O` [azelaic acid], the “stability of azelaic acid in ethanol” value in data set [1] was “unstable”. In addition, the “maximum concentration of azelaic acid dissolved in water” value in data set [2] was “about 0.24 % by weight (w/w)”.
